From patent US20100292205A1, “Pyrimidone Compounds As GSK-3 Inhibitors” (PFIZER INC., priority 2006, published 2010)

Target: T1, Recombinant human GSK3β (Homo sapiens, UniProt P49841)
T1 construct: His-tag; made in house; host or cells: Sf9 insect cells / baculovirus
Experiment: GSK-3β (Glycogen Synthase Kinase) cell free enzyme assay
Format: biochemical
Conditions: 1 μM; Examples 157-199; read-out: Percent inhibition at 1 μM
Summary of the method: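 This cell-free kinase assay measured [33P] transfer from [33P]ATP gamma phosphate into the biotinylated peptide bio-LC-S-R-H-S-S-P-H-Q-pS-E-D-E-E-E-OH. After 60 min at RT, reactions were stopped with 0.66 volume of PBS lacking Ca or Mg containing 12.5 mM EDTA, 0.25% Triton-X 100, 125 uM ATP and 6.2 mg/ml streptavidin SPA beads. Bead-bound radioactivity was counted as CPM on a Trilux scintillation counter.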

T1 sequence (P49841 whole entry): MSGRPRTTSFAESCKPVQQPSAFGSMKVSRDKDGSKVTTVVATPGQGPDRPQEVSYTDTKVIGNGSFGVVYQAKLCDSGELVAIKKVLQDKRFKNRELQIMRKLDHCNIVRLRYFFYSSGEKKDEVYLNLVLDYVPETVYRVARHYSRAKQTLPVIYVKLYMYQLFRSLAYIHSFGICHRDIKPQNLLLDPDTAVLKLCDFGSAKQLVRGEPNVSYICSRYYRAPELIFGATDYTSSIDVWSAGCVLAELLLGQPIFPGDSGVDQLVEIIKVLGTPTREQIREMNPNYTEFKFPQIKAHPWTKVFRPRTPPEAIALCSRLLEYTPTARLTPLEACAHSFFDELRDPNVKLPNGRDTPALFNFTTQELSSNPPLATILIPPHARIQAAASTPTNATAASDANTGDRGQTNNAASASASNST

Q: How did the inhibition at 1 µM turn out when `Cn1c(NC2CN(S(=O)(=O)c3ccccc3)C2)nc(-c2ccncc2)cc1=O` [Example 171, 3-Methyl-2-{[1-(phenylsulfonyl)azetidin-3-yl]amino}-6-pyridin-4-ylpyrimidin-4(3H)-one] was run?
A: Its inhibition at 1 µM is 61%.

Q: With `CN(c1nc(-c2ccncc2)cc(=O)n1C)C1CCCN(S(C)(=O)=O)CC1` (centres unmarked) [Example 159, 3-Methyl-2-{methyl[1-(methylsulfonyl)azepan-4-yl]amino}-6-pyridin-4-ylpyrimidin-4(3H)-one] as the molecule, how does the inhibition at 1 µM read?
A: Its inhibition at 1 µM is 100%.

Q: How did the inhibition at 1 µM turn out when `CCN(c1nc(-c2ccncc2)cc(=O)n1C)C1CCN(S(=O)(=O)Cc2ccccc2)CC1` [Example 199, 2-{[1-(Benzylsulfonyl)piperidin-4-yl](ethyl)amino}-3-methyl-6-pyridin-4-ylpyrimidin-4(3H)-one] was run?
A: The inhibition at 1 µM was 89%.

Q: `Cn1c(N[C@H]2[C@@H]3CN(S(C)(=O)=O)C[C@@H]32)nc(-c2ccncc2)cc1=O` [Example 157, 3-Methyl-2-{[(1R,5S,6s)-3-(methylsulfonyl)-3-azabicyclo[3.1.0]hex-6-yl]amino}-6-pyridin-4-ylpyrimidin-4(3H)-one] was tested. Which inhibition at 1 µM did it give?
A: Its inhibition at 1 µM is 61%.

Same assay, conditions: 1 μM; Examples 201-221; read-out: Percent inhibition at 1 μM

Q: With `COC(=O)N1C[C@H]2CCN(c3nc(-c4ccncc4)cc(=O)n3C)[C@H]2C1` [Example 203, Methyl (3a,R6,aR)-1-(1-methyl-6-oxo-4-pyridin-4-yl-16-dihydropyrimidin-2-yl)hexahydropyrrolo[34-b]pyrrole-5(1H)-carboxylate] as the molecule, how does the inhibition at 1 µM read?
A: Its inhibition at 1 µM is 32%.

Q: How did the inhibition at 1 µM turn out when `COC(=O)N1CCC[C@H]1CNc1nc(-c2ccncc2)cc(=O)n1C` [Example 218, Methyl (2S)-2-{[(1-methyl-6-oxo-4-pyridin-4-yl-16-dihydropyrimidin-2-yl)amino]methyl}pyrrolidine-1-carboxylate] was run?
A: Its inhibition at 1 µM is 68%.

Same assay, conditions: 1 μM; Examples 236-262; read-out: Percent inhibition at 1 μM

Q: `CCN(c1nc(-c2ccncc2)cc(=O)n1C)C1CCN(C)C1` (centres unmarked) [Example 244, 2-[ethyl(1-Methylpyrrolidin-3-yl)amino]-3-methyl-6-pyridin-4-ylpyrimidin-4(3H)-one] was tested. Which inhibition at 1 µM did it give?
A: The inhibition at 1 µM was 60%.

Q: With `Cn1c(NC2CCN(Cc3ccccc3)C2)nc(-c2ccncc2)cc1=O` (centres unmarked) [Example 236, 2-[(1-Benzylpyrrolidin-3-yl)amino]-3-methyl-6-pyridin-4-ylpyrimidin-4(3H)-one] as the molecule, how does the inhibition at 1 µM read?
A: Its inhibition at 1 µM is 63%.

Q: With `Cn1c(N[C@@H]2CN(Cc3ccccc3)C[C@@H]2F)nc(-c2ccncc2)cc1=O` [Example 253, 2-{[(3R,4S)-1-Benzyl-4-fluoropyrrolidin-3-yl]amino}-3-methyl-6-pyridin-4-ylpyrimidin-4(3H)-one] as the molecule, how does the inhibition at 1 µM read?
A: The inhibition at 1 µM was 91%.

Q: For `CN1CCC(N(C)c2nc(-c3ccncc3)cc(=O)n2C)C1` (centres unmarked) [Example 245, 3-Methyl-2-[methyl(1-methylpyrrolidin-3-yl)amino]-6-pyridin-4-ylpyrimidin-4(3H)-one], which inhibition at 1 µM is on record?
A: The inhibition at 1 µM was 52%.

Q: How did the inhibition at 1 µM turn out when `CCN(c1nc(-c2ccncc2)cc(=O)n1C)C1CCN(Cc2ccccc2)C1` (centres unmarked) [Example 257, 2-[(1-Benzylpyrrolidin-3-yl)(ethyl)amino]-3-methyl-6-pyridin-4-ylpyrimidin-4(3H)-one] was run?
A: Its inhibition at 1 µM is 71%.

Q: For `CN1C[C@H](Nc2nc(-c3ccncc3)cc(=O)n2C)[C@@H](F)C1` [Example 242, 2-{[(3S,4S)-4-Fluoro-1-methylpyrrolidin-3-yl]amino}-3-methyl-6-pyridin-4-ylpyrimidin-4(3H)-one], which inhibition at 1 µM is on record?
A: The inhibition at 1 µM was 43%.

Same assay, conditions: 1 μM; GSK-3β cell free enzyme assay; Examples 42-60; read-out: Percent inhibition at 1 μM

Q: `CC(=O)N1CCC(Nc2nc(-c3ccncc3)cc(=O)n2C)C1` (centres unmarked) [Example 45, 2-[(1-Acetylpyrrolidin-3-yl)amino]-3-methyl-6-pyridin-4-ylpyrimidin-4(3H)-one] was tested. Which inhibition at 1 µM did it give?
A: Its inhibition at 1 µM is 39%.

Same assay, conditions: cell free enzyme assay; Examples 1-35

Q: For `Cn1c(N[C@H]2CN(C(=O)OC(C)(C)C)C[C@@H]2F)nc(-c2ccncc2)cc1=O` [Example 17, tert-butyl (3S,4S)-3-Fluoro-4-[(1-methyl-6-oxo-4-pyridin-4-yl-1,6-dihydropyrimidin-2-yl)amino]pyrrolidine-1-carboxylate], which IC50 is on record?
A: The IC50 was 26.3 nM.

Q: How did the IC50 turn out when `CCN(C[C@H]1CCCN1C(=O)OC(C)(C)C)c1nc(-c2ccncc2)cc(=O)n1C` [Example 5, tert-butyl (2R)-2-{[Ethyl(1-methyl-6-oxo-4-pyridin-4-yl-1,6-dihydropyrimidin-2-yl)amino]methyl} pyrrolidine-1-carboxylate] was run?
A: Its IC50 is 2.1 nM.

Q: With `CN(c1nc(-c2ccncc2)cc(=O)n1C)[C@@H]1CC[C@H]2N(C(=O)OC(C)(C)C)CC[C@@]2(C)C1` [Example 31, tert-butyl (3aS,5R,7aR)-3a-Methyl-5-[methyl(1-methyl-6-oxo-4-pyridin-4-yl-1,6-dihydropyrimidin-2-yl)amino]octahydro-1H-indole-1-carboxylate] as the molecule, how does the IC50 read?
A: The IC50 was 30.1 nM.

Q: Which IC50 does the source give for `Cn1c(N[C@@H]2CN(C(=O)OC(C)(C)C)C[C@@H]2F)nc(-c2ccncc2)cc1=O` [Example 33, tert-butyl (3S,4R)-3-Fluoro-4-[(1-methyl-6-oxo-4-pyridin-4-yl-1,6-dihydropyrimidin-2-yl)amino]pyrrolidine-1-carboxylate] here?
A: The IC50 was 77 nM.

Q: With `Cn1c(NC[C@H]2CCCN2C(=O)OC(C)(C)C)nc(-c2ccncc2)cc1=O` [Example 32, tert-butyl (2R)-2-{[(1-Methyl-6-oxo-4-pyridin-4-yl-1,6-dihydropyrimidin-2-yl)amino]methyl} pyrrolidine-1-carboxylate] as the molecule, how does the IC50 read?
A: The IC50 was 71 nM.

Q: Which IC50 does the source give for `Cn1c(NC2CCN(C(=O)OC(C)(C)C)C2)nc(-c2ccncc2)cc1=O` (centres unmarked) [Example 24, tert-butyl 3-[(1-Methyl-6-oxo-4-pyridin-4-yl-1,6-dihydropyrimidin-2-yl)amino]pyrrolidine-1-carboxylate] here?
A: The IC50 was 43 nM.

Same assay, conditions: cell free enzyme assay; Examples 62-155

Q: `Cn1c(NC2CCCN(C(=O)Cc3ccccc3)CC2)nc(-c2ccncc2)cc1=O` (centres unmarked) [Example 80, 3-Methyl-2-{[1-(phenylacetyl)azepan-4-yl]amino}-6-pyridin-4-ylpyrimidin-4(3H)-one] was tested. Which IC50 did it give?
A: Its IC50 is 53.8 nM.

Q: With `Cc1cccc(C(=O)N2C[C@@H]3[C@H](C2)[C@H]3N(C)c2nc(-c3ccncc3F)cc(=O)n2C)c1` [Example 132, 6-(3-Fluoropyridin-4-yl)-3-methyl-2-{methyl[(1R,5S,6s)-3-(3-methylbenzoyl)-3-azabicyclo[3.1.0]hex-6-yl]amino}pyrimidin-4(3H)-one] as the molecule, how does the IC50 read?
A: The IC50 was 1.05 nM.

Q: `Cn1c(NC[C@@H]2CCCN2C(=O)Cc2ccccc2)nc(-c2ccncc2)cc1=O` [Example 93, 3-Methyl-2-({[(2S)-1-(phenylacetyl)pyrrolidin-2-yl]methyl}amino)-6-pyridin-4-ylpyrimidin-4(3H)-one] was tested. Which IC50 did it give?
A: Its IC50 is 878 nM.

Q: For `CCN(C[C@H]1CCCN1C(=O)Cc1ccccc1)c1nc(-c2ccncc2)cc(=O)n1C` [Example 94, 2-(Ethyl{[(2R)-1-(phenylacetyl)pyrrolidin-2-yl]methyl}amino)-3-methyl-6-pyridin-4-ylpyrimidin-4(3H)-one], which IC50 is on record?
A: The IC50 was 18.2 nM.

Q: With `COc1ccc(CC(=O)N2C[C@@H]3[C@H](C2)[C@H]3N(C)c2nc(-c3ccncc3F)cc(=O)n2C)cc1` [Example 109, 6-(3-Fluoropyridin-4-yl)-2-[{(1R,5S,6s)-3-[(4-methoxyphenyl)acetyl]-3-azabicyclo[3.1.0]hex-6-yl}(methyl)amino]-3-methylpyrimidin-4(3H)-one] as the molecule, how does the IC50 read?
A: The IC50 was 4.03 nM.

Q: With `Cn1c(NC2CCCCN(C(=O)Cc3ccccc3)C2)nc(-c2ccncc2)cc1=O` (centres unmarked) [Example 84, 3-Methyl-2-{[1-(phenylacetyl)azepan-3-yl]amino}-6-pyridin-4-ylpyrimidin-4(3H)-one] as the molecule, how does the IC50 read?
A: Its IC50 is 674 nM.

Q: Which IC50 does the source give for `CN(c1nc(-c2ccncc2F)cc(=O)n1C)[C@H]1[C@@H]2CN(C(=O)c3cccc(C(F)(F)F)c3)C[C@@H]21` [Example 125, 6-(3-Fluoropyridin-4-yl)-3-methyl-2-(methyl{(1R,5S,6s)-3-[3-(trifluoromethyl)benzoyl]-3-azabicyclo[3.1.0]hex-6-yl}amino)pyrimidin-4(3H)-one] here?
A: Its IC50 is 2.11 nM.

Q: With `CN(c1nc(-c2ccncc2F)cc(=O)n1C)[C@H]1[C@@H]2CN(C(=O)c3cc(F)cc(F)c3)C[C@@H]21` [Example 144, 2-{[(1R,5S,6s)-3-(3,5-Difluorobenzoyl)-3-azabicyclo[3.1.0]hex-6-yl](methyl)amino}-6-(3-fluoropyridin-4-yl)-3-methylpyrimidin-4(3H)-one] as the molecule, how does the IC50 read?
A: The IC50 was 4.09 nM.

Q: How did the IC50 turn out when `CN(c1nc(-c2ccncc2F)cc(=O)n1C)[C@H]1[C@@H]2CN(C(=O)c3cccc(Cl)n3)C[C@@H]21` [Example 96, 2-[{(1R,5S,6s)-3-[(6-Chloropyridin-2-yl)carbonyl]-3-azabicyclo[3.1.0]hex-6-yl}(methyl)amino]-6-(3-fluoropyridin-4-yl)-3-methylpyrimidin-4(3H)-one] was run?
A: The IC50 was 3.92 nM.

Q: How did the IC50 turn out when `CCN(c1nc(-c2ccncc2)cc(=O)n1C)C1CCN(C(=O)c2ccccc2)C1` (centres unmarked) [Example 69, 2-[(1-Benzoylpyrrolidin-3-yl)(ethyl)amino]-3-methyl-6-pyridin-4-ylpyrimidin-4(3H)-one] was run?
A: The IC50 was 96.1 nM.

Q: `Cn1c(N[C@@H]2CN(C(=O)Cc3ccccc3)C[C@@H]2F)nc(-c2ccncc2)cc1=O` [Example 87, 2-{[(3R,4S)-4-Fluoro-1-(phenylacetyl)pyrrolidin-3-yl]amino}-3-methyl-6-pyridin-4-ylpyrimidin-4(3H)-one] was tested. Which IC50 did it give?
A: The IC50 was 285 nM.

Same assay, conditions: cell free enzyme assay; Examples 222-234

Q: With `CCOC(=O)N1CCC[C@@H](N(C)c2nc(-c3ccncc3)cc(=O)n2C)C1` [Example 231, Ethyl (3R)-3-[methyl(1-methyl-6-oxo-4-pyridin-4-yl-1,6-dihydropyrimidin-2-yl)amino]piperidine-1-carboxylate] as the molecule, how does the IC50 read?
A: Its IC50 is 1.15 nM.

Same assay, conditions: cell free enzyme assay; Examples 265-291

Q: `CN(c1nc(-c2ccncc2F)cc(=O)n1C)[C@H]1[C@@H]2CN(c3nc4cc(F)ccc4[nH]3)C[C@@H]21` [Example 288, 2-{[(1R,5S,6s)-3-(5-Fluoro-1H-benzimidazol-2-yl)-3-azabicyclo[3.1.0]hex-6-yl](methyl)amino}-6-(3-fluoropyridin-4-yl)-3-methylpyrimidin-4(3H)-one] was tested. Which IC50 did it give?
A: Its IC50 is 116 nM.
